Experimental data taken from ChEMBL document CHEMBL5532651, “HDAC specificity and kinase off-targeting by purine-benzohydroxamate anti-hematological tumor agents” (Eur J Med Chem, 2024).
One block for each compound: values may come before it. Active and inactive are the calls of the source. The calls are words filed in the database; no cut-off is given here.

Legend:
[1] = tested on: MCF7; test: cells; assay type: functional, cell-based; conditions: Homo sapiens
[2] = tested on: HCT-116; test: cells; conditions: Homo sapiens
[3] = tested on: Jurkat; test: cells; conditions: Homo sapiens
[4] = tested on: NAMALVA; test: cells; conditions: Homo sapiens
[5] = target: T1, CYP1A2 (Homo sapiens, UniProt P05177); test: Inhibition of CYP1A2 in liver microsomes (unknown origin) at 10 uM incubated for 10 mins relative to control; assay type: ADME, Microsome
T1 sequence (P05177 whole entry): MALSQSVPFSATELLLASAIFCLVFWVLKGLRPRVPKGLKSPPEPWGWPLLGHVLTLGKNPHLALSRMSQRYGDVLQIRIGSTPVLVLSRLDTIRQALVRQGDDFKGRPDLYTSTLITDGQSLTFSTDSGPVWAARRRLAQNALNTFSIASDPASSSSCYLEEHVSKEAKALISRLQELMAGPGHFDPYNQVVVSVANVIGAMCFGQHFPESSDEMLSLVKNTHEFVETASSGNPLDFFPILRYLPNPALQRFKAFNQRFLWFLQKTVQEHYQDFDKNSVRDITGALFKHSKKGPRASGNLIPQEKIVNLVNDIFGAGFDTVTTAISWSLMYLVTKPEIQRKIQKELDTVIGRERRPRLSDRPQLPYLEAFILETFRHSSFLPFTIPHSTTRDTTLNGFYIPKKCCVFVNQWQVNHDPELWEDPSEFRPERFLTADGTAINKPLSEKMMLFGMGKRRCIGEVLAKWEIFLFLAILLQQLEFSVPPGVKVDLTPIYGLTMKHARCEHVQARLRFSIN

[6] = target: CYP2C9 (Homo sapiens, UniProt P11712); test: Inhibition of CYP2C9 in liver microsomes (unknown origin) at 10 uM incubated for 10 mins relative to control; assay type: ADME, Microsome
[7] = target: CYP2D6 (Homo sapiens, UniProt P10635); test: Inhibition of CYP2D6 in liver microsomes (unknown origin) at 10 uM incubated for 10 mins relative to control; assay type: ADME, Microsome
[8] = target: T1, CYP1A2; test: Inhibition of CYP1A2 in liver microsomes (unknown origin) at 40 uM incubated for 10 mins relative to control; assay type: ADME, Microsome
[9] = target: T2, Protein deacetylase HDAC6 (Homo sapiens, UniProt Q9UBN7); test: Inhibition of HDAC6 (unknown origin)
T2 sequence (Q9UBN7 whole entry): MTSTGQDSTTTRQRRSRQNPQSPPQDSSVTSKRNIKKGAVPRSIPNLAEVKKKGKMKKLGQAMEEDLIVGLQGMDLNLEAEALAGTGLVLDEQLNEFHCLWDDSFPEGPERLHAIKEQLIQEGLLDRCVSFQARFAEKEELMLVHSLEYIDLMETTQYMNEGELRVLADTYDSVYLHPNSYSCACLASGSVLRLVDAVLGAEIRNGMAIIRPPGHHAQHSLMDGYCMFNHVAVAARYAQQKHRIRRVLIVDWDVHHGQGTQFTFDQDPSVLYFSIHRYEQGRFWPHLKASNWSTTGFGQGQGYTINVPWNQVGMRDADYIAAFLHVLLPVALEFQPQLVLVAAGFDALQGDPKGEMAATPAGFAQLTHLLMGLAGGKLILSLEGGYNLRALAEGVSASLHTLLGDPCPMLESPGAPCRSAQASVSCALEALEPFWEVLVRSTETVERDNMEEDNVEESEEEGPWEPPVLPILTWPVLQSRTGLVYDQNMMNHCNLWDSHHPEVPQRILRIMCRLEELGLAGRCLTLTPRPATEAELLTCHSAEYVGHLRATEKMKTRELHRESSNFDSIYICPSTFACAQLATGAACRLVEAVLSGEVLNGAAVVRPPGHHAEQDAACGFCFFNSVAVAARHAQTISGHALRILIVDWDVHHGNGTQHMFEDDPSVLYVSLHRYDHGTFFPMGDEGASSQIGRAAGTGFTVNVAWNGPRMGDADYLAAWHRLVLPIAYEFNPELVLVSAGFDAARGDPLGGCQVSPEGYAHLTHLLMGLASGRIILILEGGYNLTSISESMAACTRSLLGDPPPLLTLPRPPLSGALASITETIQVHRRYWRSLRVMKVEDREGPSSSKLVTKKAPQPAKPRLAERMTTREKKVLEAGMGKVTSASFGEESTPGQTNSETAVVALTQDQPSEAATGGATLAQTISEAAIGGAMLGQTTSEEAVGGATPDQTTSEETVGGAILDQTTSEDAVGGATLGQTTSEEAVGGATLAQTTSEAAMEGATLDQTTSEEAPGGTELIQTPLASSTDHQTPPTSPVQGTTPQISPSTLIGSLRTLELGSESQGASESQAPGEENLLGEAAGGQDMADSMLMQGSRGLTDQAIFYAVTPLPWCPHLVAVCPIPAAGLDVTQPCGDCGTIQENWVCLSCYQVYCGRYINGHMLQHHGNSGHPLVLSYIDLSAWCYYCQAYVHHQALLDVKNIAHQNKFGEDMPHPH

[10] = Stability in human liver microsome assessed as half life at 1 uM measured for 60 mins by LC-MS/MS analysis; assay type: ADME; conditions: liver microsomes
[11] = Stability in mouse liver microsome assessed as half life at 1 uM measured for 60 mins by LC-MS/MS analysis; assay type: ADME; conditions: liver microsomes
[12] = Stability in human liver microsome assessed as intrinsic clearance at 1 uM measured for 60 mins by LC-MS/MS analysis; assay type: ADME; conditions: liver microsomes, read-out: CLH
[13] = Stability in mouse liver microsome assessed as intrinsic clearance at 1 uM measured for 60 mins by LC-MS/MS analysis; assay type: ADME; conditions: liver microsomes, read-out: CLH
[14] = tested on: Jurkat; test: Cytotoxicity against human Jurkat cells assessed as cell growth inhibition at 0.03 to 1.8 uM by MTT assay; assay type: functional, cell-based; conditions: dose 0.03-1.8 µM, time lower 24.0 hrs, time upper […], TDE = time-dependent effect
[15] = tested on: NAMALVA; test: Cytotoxicity against human NAMALVA cells assessed as cell growth inhibition at 0.04 to 17.4 uM by MTT assay; assay type: functional, cell-based; conditions: dose 0.04-17.4 µM, time lower 24.0 hrs, time upper […], TDE = time-dependent effect
[16] = tested on: U-937; test: Cytotoxicity against human U-937 cells assessed as cell growth inhibition at 1.6 to 6.4 uM by MTT assay; assay type: functional, cell-based; conditions: dose 1.6-6.4 µM, time lower 24.0 hrs, time upper […], TDE = time-dependent effect
[17] = tested on: U-937; test: Cytotoxicity against human U-937 cells assessed as cell growth inhibition incubated for 24 to 72 hrs by MTT assay; assay type: functional, cell-based; conditions: time lower 24.0 hrs, time upper […]
[18] = tested on: Jurkat; test: Inhibition of cell proliferation of human Jurkat cells assessed as reduction in Ki-67 expression at IC50 measured after 48 hrs by flow cytometry; assay type: functional, cell-based
[19] = tested on: U-937; test: Inhibition of cell proliferation of human U-937 cells assessed as reduction in Ki-67 expression at IC50 measured after 48 hrs by flow cytometry; assay type: functional, cell-based
[20] = tested on: NAMALVA; test: Inhibition of cell proliferation of human NAMALVA cells assessed as reduction in Ki-67 expression at IC50 measured after 48 hrs by flow cytometry; assay type: functional, cell-based
[21] = tested on: Jurkat; test: Induction of apoptosis in human Jurkat cells at IC50 measured after 48 hrs by flow cytometry; assay type: functional, cell-based
[22] = tested on: U-937; test: Induction of apoptosis in human U-937 cells at IC50 measured after 48 hrs by flow cytometry; assay type: functional, cell-based
[23] = tested on: NAMALVA; test: Induction of apoptosis in human NAMALVA cells at IC50 measured after 48 hrs by flow cytometry; assay type: functional, cell-based
[24] = target: T2, Protein deacetylase HDAC6; test: Inhibition of full-length recombinant human HDAC6 expressed in baculovirus infected Sf9 cells using RHKK(Ac)AMC as substrate preincubated for 5 to 10 mins followed by substrate addition measured after 2 hrs by fluorescence based assay
[25] = target: T3, Protein deacetylase HDAC6 (Homo sapiens) (UniProt Q9UBN7); test: Inhibition of HDAC6 in human Jurkat cells assessed as increase in acetyl-histone H3 level at IC50 incubated for 48 hrs by Western blot analysis; assay type: cell-based
T3 sequence (whole entry): T2 sequence (Q9UBN7 whole entry)

[26] = target: T3, Protein deacetylase HDAC6 (Homo sapiens); test: Inhibition of HDAC6 in human NAMALVA cells assessed as increase in acetyl-histone H3 level at IC50 incubated for 48 hrs by Western blot analysis; assay type: cell-based
[27] = target: T3, Protein deacetylase HDAC6 (Homo sapiens); test: Inhibition of HDAC6 in human U-937 cells assessed as increase in acetyl-histone H3 level at IC50 incubated for 48 hrs by Western blot analysis; assay type: cell-based
[28] = target: T3, Protein deacetylase HDAC6 (Homo sapiens); test: Inhibition of HDAC6 in human Jurkat cells assessed as increase in acetyl-alpha-tubulin level at IC50 incubated for 48 hrs by Western blot analysis; assay type: cell-based
[29] = target: T3, Protein deacetylase HDAC6 (Homo sapiens); test: Inhibition of HDAC6 in human NAMALVA cells assessed as increase in acetyl-alpha-tubulin level at IC50 incubated for 48 hrs by Western blot analysis; assay type: cell-based
[30] = target: T3, Protein deacetylase HDAC6 (Homo sapiens); test: Inhibition of HDAC6 in human U-937 cells assessed as increase in acetyl-alpha-tubulin level at IC50 incubated for 48 hrs by Western blot analysis; assay type: cell-based

Chain of CYP2C9 (P11712 whole entry): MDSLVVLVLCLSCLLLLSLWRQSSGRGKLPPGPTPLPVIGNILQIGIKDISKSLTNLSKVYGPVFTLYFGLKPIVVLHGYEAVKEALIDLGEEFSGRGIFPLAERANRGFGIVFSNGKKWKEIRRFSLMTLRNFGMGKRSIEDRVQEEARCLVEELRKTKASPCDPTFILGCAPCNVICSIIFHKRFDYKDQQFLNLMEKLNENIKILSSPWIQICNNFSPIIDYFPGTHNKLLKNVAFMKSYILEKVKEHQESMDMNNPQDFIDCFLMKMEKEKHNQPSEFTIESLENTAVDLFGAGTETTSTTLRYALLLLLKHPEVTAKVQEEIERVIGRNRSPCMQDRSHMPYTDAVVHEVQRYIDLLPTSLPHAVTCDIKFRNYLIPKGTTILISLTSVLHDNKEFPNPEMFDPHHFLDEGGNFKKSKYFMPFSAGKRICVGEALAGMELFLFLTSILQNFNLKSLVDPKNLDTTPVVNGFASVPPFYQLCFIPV
Chain of CYP2D6 (P10635 whole entry): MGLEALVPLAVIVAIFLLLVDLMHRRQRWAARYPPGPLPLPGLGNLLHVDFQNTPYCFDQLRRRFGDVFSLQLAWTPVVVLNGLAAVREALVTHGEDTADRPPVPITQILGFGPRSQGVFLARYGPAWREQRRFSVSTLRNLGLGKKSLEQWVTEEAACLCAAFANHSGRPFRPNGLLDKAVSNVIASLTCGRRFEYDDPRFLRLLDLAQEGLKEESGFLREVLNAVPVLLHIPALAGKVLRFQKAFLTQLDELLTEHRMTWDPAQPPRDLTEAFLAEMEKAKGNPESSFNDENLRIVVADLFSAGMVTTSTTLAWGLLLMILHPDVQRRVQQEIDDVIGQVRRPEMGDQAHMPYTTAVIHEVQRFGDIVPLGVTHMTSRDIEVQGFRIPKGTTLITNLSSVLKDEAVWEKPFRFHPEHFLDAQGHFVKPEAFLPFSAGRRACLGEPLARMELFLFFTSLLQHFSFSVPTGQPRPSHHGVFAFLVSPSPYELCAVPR

SMILES: O=C(NO)c1ccc(Cn2cnc3c(Nc4ccc(Cl)c(C(F)(F)F)c4)ncnc32)cc1
IC50 [1]: 13.2 µM
IC50 [2]: 2.9 µM
IC50 [3]: 0.25 µM
IC50 [4]: 0.26 µM

SMILES: COc1cc(Nc2ncnc3c2ncn3Cc2ccc(C(=O)NO)cc2)cc(OC)c1OC
IC50 [1]: > 50 µM
IC50 [2]: > 50 µM
IC50 [4]: 0.8 µM

SMILES: Cc1nc2c([nH]1)c(=O)n(C)c(=O)n2Cc1ccco1 [FURAFYLLINE]
inhibition at 10 min, 10 µM [6]: 10%
inhibition at 10 min, 10 µM [7]: 10%
inhibition at 10 min, 40 µM [8]: 78%

SMILES: COc1ccc(Nc2ncnc3c2ncn3Cc2ccc(C(=O)NO)cc2)cc1OC
IC50 [1]: > 50 µM
IC50 [2]: 16.3 µM
IC50 [3]: 0.6 µM
IC50 [4]: 0.5 µM

SMILES: Cc1ccc(Nc2ncnc3c2ncn3Cc2ccc(C(=O)NO)cc2)cc1S(N)(=O)=O
IC50 [1]: > 50 µM
IC50 [2]: > 50 µM
IC50 [3]: > 50 µM
IC50 [4]: > 50 µM

SMILES: O=C(NO)c1ccc(Cn2cnc3c(Nc4ccc(Br)cc4F)ncnc32)cc1
IC50 [1]: 21.7 µM
inhibition [14]: Tde
inhibition [15]: Tde
inhibition [16]: Tde
inhibition [17]: Dose-Dependent Effect
inhibition [18]: Active
inhibition [19]: Active
inhibition [20]: Active
Activity [21]: Active
Activity [22]: Active
Activity [23]: Active
IC50 [24]: 0.184 µM
inhibition [25]: Active
inhibition [26]: Active
inhibition [27]: Active
inhibition [28]: Active
inhibition [29]: Active
inhibition [30]: Active
inhibition at 10 min, 10 µM [5]: 47%
inhibition at 10 min, 10 µM [6]: 42%
inhibition at 10 min, 10 µM [7]: 10%
half-life at 1 µM [10]: > 120 min
half-life at 1 µM [11]: 35 min
microsomal CLint at 1 µM [12]: < 6 µL/min/mg
microsomal CLint at 1 µM [13]: 20 µL/min/mg
IC50 [2]: 21.7 µM
IC50 [3]: 0.03 µM
IC50 [4]: 0.04 µM

SMILES: CC(=O)N1CCN(c2ccc(OCC3COC(Cn4ccnc4)(c4ccc(Cl)cc4Cl)O3)cc2)CC1 (stereo not drawn) [KETOCONAZOLE]
inhibition at 10 min, 10 µM [5]: 10%
inhibition at 10 min, 10 µM [6]: 10%

Further lines, results first:

inhibition at 10 min, 10 µM [5]: 10%
inhibition at 10 min, 10 µM [6]: 10%
inhibition at 10 min, 10 µM [7]: 86%
SMILES: C=C[C@H]1C[N@@]2CC[C@H]1C[C@@H]2[C@@H](O)c1ccnc2ccc(OC)cc12 [QUINIDINE]

IC50 [1]: > 50 µM
IC50 [2]: > 50 µM
IC50 [3]: > 50 µM
IC50 [4]: > 50 µM
SMILES: O=C(NO)c1ccc(Cn2cnc3c(O)ncnc32)cc1

IC50 [1]: > 50 µM
IC50 [2]: > 50 µM
IC50 [3]: > 50 µM
IC50 [4]: > 50 µM
SMILES: COC(=O)c1ccc(Cn2cnc3c(Nc4ccc(Cl)c(C(F)(F)F)c4)ncnc32)cc1

IC50 [1]: > 50 µM
IC50 [2]: > 50 µM
IC50 [3]: > 50 µM
IC50 [4]: > 50 µM
SMILES: O=C(NO)c1ccc(Nc2ncnc3[nH]cnc23)cc1

IC50 [1]: > 50 µM
IC50 [2]: > 50 µM
IC50 [3]: 0.2 µM
IC50 [4]: 0.13 µM
SMILES: O=C(NO)c1ccc(Cn2cnc3c(Nc4ccccc4)ncnc32)cc1

inhibition at 10 min, 10 µM [5]: 10%
inhibition at 10 min, 10 µM [7]: 10%
SMILES: Nc1ccc(S(=O)(=O)Nc2ccnn2-c2ccccc2)cc1 [SULFAPHENAZOLE]

IC50 [9]: 2.6 µM
SMILES: O=C(/C=C/c1cccc(S(=O)(=O)Nc2ccccc2)c1)NO [BELINOSTAT]

IC50 [1]: > 50 µM
IC50 [2]: > 50 µM
IC50 [3]: > 50 µM
IC50 [4]: > 50 µM
SMILES: O=C(NO)c1cccc(Cn2cnc3c(O)ncnc32)c1

half-life at 1 µM [10]: 33 min
half-life at 1 µM [11]: 12 min
microsomal CLint at 1 µM [12]: 21 µL/min/mg
microsomal CLint at 1 µM [13]: 58 µL/min/mg
SMILES: CCN(CC)CCNC(=O)c1c(C)[nH]c(/C=C2\C(=O)Nc3ccc(F)cc32)c1C [SUNITINIB]
